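A five-concentration, 48-hour dose response in 96-well plates underlies each endpoint, interpolated linearly between surrounding concentrations. The concentration for full growth arrest is given as TGI.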
How the values were obtained:
Assay in all cases: NCI-60 cell line screen, 48 h
[1] = system: DLD-1 colon
[2] = system: M19-MEL melanoma
[3] = system: HOP-62 NSCLC
[4] = system: NCI-H522 lung
[5] = system: HCC-2998 colon
[6] = system: DMS 273 small cell lung
[7] = system: SK-MEL-2 melanoma
[8] = system: SNB-78 CNS
[9] = system: OVCAR-4 ovarian
[10] = system: KM20L2 colon
[11] = system: 786-0 renal
[12] = system: MDA-MB-231 breast
[13] = system: PC-3 prostate

Row | SMILES | TGI [1] [µM] | TGI [2] [µM] | TGI [3] [µM] | TGI [4] [µM] | TGI [5] [µM] | TGI [6] [µM] | TGI [7] [µM] | TGI [8] [µM] | TGI [9] [µM] | TGI [10] [µM] | TGI [11] [µM] | TGI [12] [µM] | TGI [13] [µM]
1 | CC(=O)Oc1ccc(C2COc3cc(OC(C)=O)c(OC(C)=O)cc3C2)cc1 (stereo unspecified) | 38 | 33.2 | 48 | 7.78 | 46.8 | 61.6 | 41.5 | 80.2 | 29.1 | 75.5 | – | – | –
2 | OC12CC/C(=N/OCc3ccccc3)CC1c1ccccc12 (stereo unspecified) | > 100 | > 100 | > 100 | > 100 | > 100 | > 100 | > 100 | > 100 | > 100 | > 100 | > 100 | – | –
3 | Cn1c2ccccc2c2c3c(c4c5ccccc5n(C)c4c21)C(=O)c1ccccc1C3=O | – | – | > 100 | 68.2 | > 100 | – | > 100 | – | > 100 | – | 31.7 | 79.1 | > 100
4 | COC(=O)[C@@]12CCCC(=O)[C@@H]1[C@H]1CCCC[C@H]12 | – | – | > 100 | > 100 | > 100 | – | > 100 | – | > 100 | – | > 100 | > 100 | > 100
5 | CC(=O)c1cc2c(s1)C(=O)c1ccccc1C2=O | – | – | > 100 | 3.5 | 18.3 | – | 15.5 | – | 57 | – | > 71.3 | 41.8 | > 100
6 | CC(=O)OCC=C(CCl)CCC(Br)C(C)(C)Br (mixture of isomers) | – | – | > 10 | > 10 | > 10 | – | > 10 | – | > 10 | – | > 10 | > 10 | > 10
7 | COc1ccc(OC)c2c1C1CCC(=O)N1CN2C(C)=O (stereo unspecified) | – | – | > 100 | > 100 | > 100 | – | > 100 | – | > 100 | – | > 100 | > 100 | > 100
8 | C=CC[C@@]1(C(=O)OC)[C@H](Sc2ccccc2)C1(C)C | – | – | > 100 | 87.9 | 96.2 | – | 64.1 | – | > 100 | – | > 100 | > 100 | > 100
9 | CCOC(=O)C(CS)NC(=O)CCCCCCCC(=O)NC(CS)C(=O)OCC (stereo unspecified) | – | – | > 100 | > 100 | > 100 | – | > 100 | – | > 100 | – | > 100 | > 100 | > 100
10 | CSc1c(C#N)c2n(c3ccccc13)c1ccccc1[n+]2C | – | – | 52.7 | 31.5 | 64.8 | – | 39.1 | – | > 100 | – | > 100 | 60.1 | 78.5
11 | CC1(Cl)CC2C(CC1Sc1nnnn1-c1ccccc1)C2(C)C (stereo unspecified) | > 100 | > 100 | > 100 | – | > 100 | > 100 | > 100 | > 100 | > 100 | > 100 | – | – | –
12 | Cc1cc(C)n(CN(Cn2nc(C)cc2C)C2CCCCC2)n1 | – | – | 69.6 | 43.8 | 27.9 | – | 36.7 | – | 67.9 | – | 48.9 | 64.2 | 60
13 | O=c1oc2ccc(Cl)cc2cc1-c1cn2cc(Cl)ccc2n1 | – | – | > 100 | 11.2 | > 100 | – | > 100 | – | > 100 | – | > 100 | > 100 | > 100
14 | NCCCCNCCCNC(=O)c1nc(-c2csc(CCN)n2)sc1Cl | > 100 | > 100 | > 100 | > 100 | > 100 | > 100 | > 100 | > 100 | > 100 | > 100 | – | – | –
15 | CC1(C)Oc2ccc(NC(=O)CCC(N)C(=O)O)cc2O1 (stereo unspecified) | – | – | > 100 | > 100 | > 100 | – | > 100 | – | > 100 | – | > 100 | > 100 | > 100
16 | C[C@]12CC[C@H](O)CC1=CC[C@@H]1[C@@H]2CC[C@]2(C)/C(=N/OCCN3CCCC3)CC[C@@H]12 | – | – | 53.2 | 25.7 | 37.1 | – | 45.1 | – | 36 | – | 33.6 | 36.9 | 39.4
17 | COc1cc2c(cc1OC)-c1c3c(cc4c1[C@@H](C2)N(C)CC4)OCO3 | 49.5 | 24.1 | 20.7 | 21.1 | 23.8 | 14.5 | 22 | 43.9 | 22.8 | 31.9 | – | – | –
18 | CC(=O)OC1[C@H]2c3cc4c(cc3CN3CCC(=C[C@@H]1O)C23)OCO4 (stereo partly specified) | > 100 | > 100 | > 100 | > 100 | > 100 | > 100 | – | > 100 | – | > 100 | > 100 | – | –
19 | C[n+]1c2ccccc2c(C(=O)Nc2ccc(S(=O)(=O)N=C(N)N)cc2)c2ccccc21 | – | – | > 100 | > 100 | > 100 | – | > 100 | – | > 100 | – | > 100 | 76.5 | > 100
20 | CCc1c(C)c(C#N)c(=S)n(C2OC(CO)C(O)C(O)C2O)c1C (stereo unspecified) | – | – | > 100 | > 100 | > 100 | – | > 100 | – | > 100 | – | > 100 | > 100 | > 100
21 | CSc1cc(N)ccc1N=Nc1ccc(S(N)(=O)=O)cc1 | – | – | 79 | 43.7 | > 100 | – | 62.3 | – | > 100 | – | 76.8 | 57.9 | > 100
22 | CCOC(=O)C(/C=N\C(=S)Nc1ccc(OCC)cc1)=C(/O)c1ccccc1 | – | – | > 100 | > 100 | > 100 | – | > 100 | – | > 100 | – | > 100 | > 100 | > 100
23 | CC1(COS(=O)(=O)OCC2(C)COS(=O)(=O)OC2)COS(=O)(=O)OC1 | – | – | > 100 | > 100 | > 100 | – | > 100 | – | > 100 | – | > 100 | > 100 | > 100
24 | O=c1[nH]c(Nc2cccc(Cl)c2)nc2nc[nH]c12 | – | – | > 100 | > 100 | > 100 | – | > 100 | – | > 100 | – | > 100 | > 100 | > 100
25 | NNC(=S)N1CCN(C(=S)NN)CC1 | – | – | > 100 | > 100 | > 100 | – | > 100 | – | > 100 | – | > 100 | > 100 | > 100
